Results taken from PubChem BioAssay (NCI).
Values joined by “and” are separate entries in the source; they are usually repeats but may differ in a detail not shown here. Identical values can stand only once.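 The compound was tested at five concentrations on cells cultured in 96-well plates, with a 48-hour exposure period. Here, GI50 denotes the concentration required for 50% inhibition of growth. TGI: total growth inhibition.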

Assays:
Test in all cases: inhibition of tumour cell growth, NCI panel, 48 h
CCRF-CEM leukemia = tested on: CCRF-CEM leukemia
HCT-15 colon = tested on: HCT-15 colon
DU-145 prostate = tested on: DU-145 prostate
MOLT-4 leukemia = tested on: MOLT-4 leukemia
A498 renal = tested on: A498 renal
MALME-3M melanoma = tested on: MALME-3M melanoma
HOP-62 NSCLC = tested on: HOP-62 NSCLC
SK-MEL-5 melanoma = tested on: SK-MEL-5 melanoma
HT29 colon = tested on: HT29 colon
EKVX NSCLC = tested on: EKVX NSCLC
NCI-H522 lung = tested on: NCI-H522 lung
U251 CNS = tested on: U251 CNS
UO-31 renal = tested on: UO-31 renal
SF-295 CNS = tested on: SF-295 CNS
TK-10 renal = tested on: TK-10 renal
SF-268 CNS = tested on: SF-268 CNS
SNB-75 CNS = tested on: SNB-75 CNS
786-0 renal = tested on: 786-0 renal
T-47D breast = tested on: T-47D breast

Row | SMILES | TGI (CCRF-CEM leukemia) | TGI (HCT-15 colon) | TGI (DU-145 prostate) | TGI (MOLT-4 leukemia) | TGI (A498 renal) | TGI (MALME-3M melanoma) | TGI (HOP-62 NSCLC) | TGI (SK-MEL-5 melanoma) | TGI (HT29 colon) | TGI (EKVX NSCLC) | TGI (NCI-H522 lung) | TGI (U251 CNS) | TGI (UO-31 renal) | TGI (SF-295 CNS) | TGI (TK-10 renal) | TGI (SF-268 CNS) | TGI (SNB-75 CNS) | TGI (786-0 renal) | TGI (T-47D breast) | GI50 (SNB-75 CNS)
1 | CCOC(=O)C1C(=O)CC(C)(O)C(C(=O)OCC)C1c1ccc(OC)cc1 (configuration not stated) | > 100 µM | > 100 µM | > 100 µM | > 100 µM | > 100 µM | > 100 µM | > 100 µM | > 100 µM | > 100 µM | > 100 µM | > 100 µM | > 100 µM | > 100 µM | > 100 µM | > 100 µM | > 100 µM | > 100 µM | > 100 µM | > 100 µM | 
2 | COc1cc2c(cc1OC)C(=O)/C(=C/c1ccccc1)C2 | 99.4 µM | > 100 µM | > 100 µM | 43.9 µM | 7.24 µM | > 100 µM | > 100 µM | > 84.1 µM | > 100 µM | > 100 µM | > 100 µM | > 100 µM | > 100 µM | > 100 µM | > 100 µM | > 100 µM | 98.1 µM | > 100 µM | > 100 µM | 
3 | O=C1/C(=C/c2cccc([N+](=O)[O-])c2)N=C(c2ccccc2)N1c1ccc2c(c1)Sc1cc(N3C(=O)/C(=C/c4cccc([N+](=O)[O-])c4)N=C3c3ccccc3)ccc1N2 | 55.3 µM | > 100 µM | > 100 µM | > 100 µM | 55.1 µM | 41.1 µM | 49.5 µM | 31 µM | > 100 µM | 62.9 µM | 41.9 µM | 66.5 µM | > 100 µM | 32.6 µM | 39.4 µM | 40.5 µM | 34.3 µM | 46.3 µM | 80 µM | 
4 | Cc1ccc2nc(Cl)c(/C=N/N3C(=O)/C(=C/Cc4ccco4)N=C3c3ccccc3)cc2c1 | > 100 µM | > 97.1 µM | > 79.5 µM | > 92 µM | > 100 µM | > 100 µM | > 100 µM | > 100 µM | > 79.4 µM | 98.7 µM | 74 µM | > 100 µM | > 74.7 µM | > 100 µM | 55.5 µM | 70.6 µM | > 92.8 µM | 47.3 µM | > 100 µM | 
5 | COc1cc(C2c3cc4c(cc3OC(O)C2C)OCO4)cc(OC)c1O (configuration not stated) | > 100 µM | > 57.4 µM | > 100 µM | > 100 µM | 80.6 µM | 29.4 µM | 98.9 µM | > 51.6 µM | > 63.3 µM | > 81.9 µM | 13.3 µM | 62.8 µM | > 96.5 µM | 33.9 µM | 57.4 µM | > 100 µM | 26 µM | > 100 µM | > 68.6 µM | 
6 | O=c1[nH][nH]c(=S)c(=O)[nH]1 | > 100 µM | > 100 µM | > 100 µM | > 100 µM | > 100 µM | > 100 µM | > 100 µM | > 100 µM | > 100 µM | > 100 µM | > 100 µM | > 100 µM | > 100 µM | > 100 µM | > 100 µM | > 100 µM | > 100 µM | > 100 µM | > 100 µM | 
7 | CC1=NN(c2ccccc2)C(=O)C1C(=O)C(=O)Nc1ccc(C)cc1C (configuration not stated) | > 100 µM | > 100 µM | > 100 µM | > 100 µM | > 100 µM | > 100 µM | > 100 µM | > 100 µM | > 100 µM | > 100 µM | > 100 µM | > 100 µM | > 100 µM | > 100 µM | > 100 µM | > 100 µM | > 100 µM | > 100 µM | > 100 µM | 
8 | C/C(=C\[C@H]1C[C@@H]([C@@H]2CC[C@]34C[C@]23C=C[C@@H]2[C@@]3(C)CC=C5C[C@@H](c6ccccc6)OC[C@]5(C)[C@@H]3C[C@@H](O)[C@]24C)C(=O)O1)CO | > 100 µM | 25.3 µM | > 67.9 µM | > 100 µM | 5.8 µM | 82.5 µM | > 100 µM | 2.76 µM | 7.85 µM | > 52 µM | 89.3 µM | > 100 µM | 9.54 µM | 15.7 µM | > 56 µM | > 70.1 µM | 92 µM | > 100 µM | > 100 µM | 
9 | CN(C)CC1CN(C(=O)Nc2ccccc2)C(=N)O1 (configuration not stated) | > 100 µM | > 100 µM | > 100 µM | > 100 µM | > 100 µM | > 100 µM | > 100 µM | > 100 µM | > 100 µM | > 100 µM | > 100 µM | > 100 µM | > 100 µM | > 100 µM | > 100 µM | > 100 µM | > 100 µM | > 100 µM | > 100 µM | 
10 | CCNC(=O)Cc1nc2c(=O)[nH]cnc2n1C1OC(CO)C(O)C1O (configuration not stated) | > 100 µM | > 100 µM | > 100 µM | > 100 µM | > 100 µM | > 100 µM | > 100 µM | > 100 µM | > 100 µM | > 100 µM | > 100 µM | > 100 µM | > 100 µM | > 100 µM | > 100 µM | > 100 µM | > 100 µM | > 100 µM | > 100 µM | 
11 | CN(C)C1COC2Cc3ccccc3C1O2 (configuration not stated) | > 100 µM | > 100 µM | > 100 µM | > 100 µM | > 100 µM | > 100 µM | > 100 µM | > 100 µM | > 100 µM | > 100 µM | > 100 µM | > 100 µM | > 100 µM | > 100 µM | > 100 µM | > 100 µM | 83.5 µM and 79.7 µM | > 100 µM | > 100 µM | 3.16 µM and 11.2 µM
12 | Nc1nc(Cl)cc(NCC2(CO)CC(Cc3ccccc3)C2)n1 (configuration not stated) | > 100 µM | > 100 µM | > 100 µM | > 71.4 µM | 78.7 µM | > 100 µM | > 100 µM | > 41.9 µM | > 72.4 µM | > 95.1 µM | > 100 µM | > 100 µM | > 100 µM | > 100 µM | > 96.5 µM | > 31.6 µM | > 100 µM | > 100 µM | > 65.4 µM | 
13 | O=C1NCN(c2ccccc2)C12CCN(CCCSc1ccc(F)cc1)CC2 | > 71.4 µM | > 100 µM | > 100 µM | > 100 µM | 42.9 µM | 52.7 µM | 97 µM | 17.9 µM | 19.4 µM | > 100 µM | > 100 µM | > 100 µM | > 100 µM | > 100 µM | 99.1 µM | > 100 µM | > 86.1 µM | > 100 µM | > 100 µM | 
14 | Cc1ccc2cccc(OC(=O)c3cc4c(cc3Cl)Sc3nccn3S4(=O)=O)c2n1 | 17 µM | 29 µM | 18.1 µM | 19.8 µM | 45 µM | 47.4 µM | 19.4 µM | 27 µM | 44.5 µM | 48 µM | 38 µM | 16.6 µM | 30.6 µM | 29.7 µM | 30.9 µM | > 100 µM | 39.6 µM | 43.6 µM | 13 µM | 
15 | O=C1/C(=C/c2ccc(O)cc2)CCc2ccccc21 | 10.9 µM | 40.4 µM | 64.9 µM | 12.4 µM | 44.5 µM | 42.9 µM | 55.4 µM | 32.5 µM | 45 µM | 58.3 µM | 5.61 µM | 69.7 µM | 47.9 µM | > 63.7 µM | > 95.9 µM | 37.6 µM | > 70.7 µM | 39.1 µM | > 100 µM | 
16 | O=C1C=Cc2c(I)sc(I)c21 | 18.3 µM | 34 µM | > 100 µM | 42.3 µM | > 100 µM | 33.4 µM | > 100 µM | > 100 µM | 68.4 µM | 83.9 µM | 6.97 µM | 33.3 µM | 32.5 µM | > 100 µM | 68.5 µM | 32.7 µM | 87.4 µM | 22.8 µM | 41.4 µM | 
17 | COc1ccc2nc(-c3ccc(O)cc3)cn2c1 | > 100 µM | > 100 µM | > 100 µM | > 100 µM | > 100 µM | > 100 µM | > 100 µM | 62.6 µM | > 100 µM | > 100 µM | > 100 µM | > 100 µM | > 100 µM | > 100 µM | > 100 µM | > 100 µM | > 100 µM | > 100 µM | > 100 µM | 
18 | Cc1c(C)c(C)c(CSC(=N)N)c(C)c1C | 35.4 µM | 31.3 µM | 31.6 µM | 33 µM | 29.8 µM | 32.9 µM | 29.1 µM | 26.6 µM | 25.6 µM | 28 µM | 33 µM | 26.4 µM | 20.2 µM | 21.7 µM | 28.4 µM | 36.2 µM | 29 µM | 32.9 µM | 36.6 µM | 
19 | CC1(C)OC([C@H](O)CO)C([C@H]2NCCS2)O1 (some centres not stated) | > 100 µM | > 100 µM | > 100 µM | > 100 µM | > 100 µM | > 100 µM | > 100 µM | > 100 µM | > 100 µM | > 100 µM | > 100 µM | > 100 µM | > 100 µM | > 100 µM | > 100 µM | > 100 µM | > 100 µM | > 100 µM | > 100 µM | 
